In the SangsterLogP compilation:

Test: method code SF-AS, from DOI: 10.1002/qsar.19900090404

Compound | logP
NC(=O)c1cncnc1 | -0.92
COC(=O)c1cncnc1 | 0.03
CCCOc1cnccn1 | 1.84
COC(=O)c1ncccn1 | -0.71
CCOc1ccnnc1 | 0.2
COc1cnccn1 | 0.73
COC(=O)c1ccnnc1 | -0.27
Cc1cncnc1 | 0.01
CCOC(=O)c1cncnc1 | 0.52
Fc1ccccn1 | 0.84
N#Cc1ncccn1 | -0.31
NC(=O)c1ccnnc1 | -0.96
COc1cncnc1 | 0.07
CC(=O)c1cnccn1 | 0.2
COC(=O)c1ccncn1 | -0.27
COC(=O)c1cccnn1 | -0.43
COc1cccnn1 | 0.08
CCOc1cccnn1 | 0.63
NC(=O)c1cccnn1 | -0.73

Compound | logP
CCOC(=O)c1cnccn1 | 0.28
Cc1ccnnc1 | -0.32
CC(=O)Nc1ccncn1 | 0.03
NC(=O)c1ncccn1 | -1.2
CCCOc1ccccn1 | 2.38
CN(C)c1cncnc1 | 0.46
CC(=O)Nc1cncnc1 | -0.22
COc1ncccn1 | 0.23
CC(=O)Nc1cnccn1 | -0.03
Cc1ncccn1 | -0.05
CCOC(=O)c1ccnnc1 | 0.23
Cc1cccnn1 | -0.35
CCOc1ccccn1 | 1.81
Clc1cccnn1 | 0.1
N#Cc1cnccn1 | -0.01
Nc1ccncn1 | -0.25
CN(C)c1ccncn1 | 0.58
NC(=O)c1ccncn1 | -0.68
CCc1ccccn1 | 1.6

Compound | logP
Fc1ncccn1 | 0.02
Clc1cnccn1 | 0.7
CN(C)c1ncccn1 | 1.07
Fc1cnccn1 | 0.29
CCOc1cncnc1 | 0.56
Clc1ncccn1 | 0.36
Fc1cncnc1 | -0.03
Nc1ccnnc1 | -0.53
CCOc1ccncn1 | 0.97
CC(=O)Nc1ccnnc1 | -0.41
NC(=O)c1cnccn1 | -0.5
CCOc1cnccn1 | 1.28
N#Cc1ccnnc1 | -0.63
CSc1ncccn1 | 1.01
COc1ccncn1 | 0.54
CCOc1ncccn1 | 0.74
CSc1cnccn1 | 1.17
CCOC(=O)c1ncccn1 | -0.31
